Assay [1] deals with cell death induced by the NAMPT inhibitor FK866. Briefly: Protection against cell death induced by the NAMPT inhibitor FK866 (Celltiter-Glo, cellular ATP). The assay is classed as cell-based. The settings on record: AUC of dose-response curve (0.1-10 μM) relative to AUC of NAT; 10 nM FK866, 72 hours, cell viability by ATP. Here is the method:
In the latter cell-based assay, we determined the degree of protection of NAT and derivatives thereof against the NAMPT inhibitor FK866. […] After 72 hours, Celltiter-Glo (Promega) was used to detect cellular ATP levels to reflect cell viability and normalized to the DMSO group. A dose-response curve was drawn to evaluate the cytoprotective activity of individual compounds against FK866. Then the area under the dose-response curve (AUC, area under curve) of each compound was calculated and compared with the AUC of NAT, so that the obtained relative value quantitatively expressed the cytoprotective activity of each compound.

For assay [2], the target named is T1, NAMPT (Homo sapiens, UniProt P43490). Briefly: Isothermal calorimetric titration (ITC) binding to NAMPT. On the technique in general: ITC needs no label: the signal is the heat of the interaction.
T1 sequence (P43490 whole entry, species assumed): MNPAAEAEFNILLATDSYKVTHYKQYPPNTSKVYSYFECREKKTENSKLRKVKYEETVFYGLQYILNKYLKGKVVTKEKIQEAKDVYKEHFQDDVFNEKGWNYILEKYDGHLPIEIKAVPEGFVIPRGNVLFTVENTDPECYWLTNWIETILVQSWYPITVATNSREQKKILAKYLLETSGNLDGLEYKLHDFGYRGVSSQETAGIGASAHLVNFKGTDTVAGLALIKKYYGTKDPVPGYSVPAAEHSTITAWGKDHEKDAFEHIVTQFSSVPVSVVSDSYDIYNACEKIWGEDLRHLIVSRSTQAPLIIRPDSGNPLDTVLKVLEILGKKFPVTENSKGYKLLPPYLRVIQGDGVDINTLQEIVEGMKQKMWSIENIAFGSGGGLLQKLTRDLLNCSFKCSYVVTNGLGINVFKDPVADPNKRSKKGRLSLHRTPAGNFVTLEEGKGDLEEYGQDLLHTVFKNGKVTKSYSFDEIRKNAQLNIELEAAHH
Source text: We verified the direct binding between in vitro expressed and purified NAMPT and NAT by isothermal calorimetric titration (ITC). […] The final data were fitted using a single-point model.
Assay [3] addresses T1, NAMPT. Nature of the assay: NAMPT enzyme activity assay coupled with NMNAT1 and ADH (NADH fluorescence). To be noted: for Relative activation of NAMPT activity: AUC of dose-response curve (0.1, 0.3, 1, 3, 10 μM) relative to AUC of NAT (NAT = 1), 1 μM NAMPT, 200 μM NAM.
Procedure: The NAMPT enzyme activity was assayed by a method coupled with the three enzymes: NAMPT, NMNAT1 and alcohol dehydrogenase (ADH). NAMPT synthesizes NMN from NAM and PRPP, NMNAT1 synthesizes NAD from NMN produced in the first step, and ADH converts NAD into detectable fluorescent NADH. […] The reaction was initiated by adding 200 μM nicotinamide (NAM) and mixing gently. The enzyme activity of NAMPT was expressed as the concentration of NADH generated per minute (the molar value was equal to NAD). The relative enzyme activity of NAMPT in each compound-treated group was normalized by the value of the DMSO-treated group, and a dose-response curve was drawn to evaluate the effect of individual compounds on NAMPT enzyme activity. The area under the dose-response curve (AUC, area under curve) was then calculated for individual compound and compared to the AUC of NAT, so that the obtained relative value quantitative Eauc represented the enzyme activation activity of each compound, and the specific calculation formula was shown in FIG. 3.

Structures are written as SMILES.

`CC(C)(C)c1ccccc1OCC(=O)Nc1ccccc1` [Compound 2, 2-(2-(tert-butyl)phenoxy)-N-phenylacetamide]: the Relative cytoprotective activity in assay [1] stood at 0.02446. Moreover, the “binding to NAMPT (in words)” value in assay [2] is “cannot bind NAMPT”. Besides, in assay [3], the “NAMPT activation activity (in words)” value is “cannot activate NAMPT” and the “Relative activation of NAMPT activity” value is −0.2247.

In turn, `CC(C)(C)c1cc(Br)ccc1OCC(=O)Nc1ccc(O)cc1` [Compound 61, 2-(4-bromo-2-(tert-butyl)phenoxy)-N-(4-hydroxyphenyl)acetamide] yielded a Relative cytoprotective activity in assay [1] of 1.285. Further, the “Relative activation of NAMPT activity” value in assay [3] was 0.4032.

For the compound `COC(=O)c1ccc(C(C)(C)C)c(OCC(=O)Nc2ccc(O)cc2)c1` [Compound 62, 4-(tert-butyl)-3-(24(4-hydroxyphenyl)amino)-2-oxoethoxy)methyl benzoate], the Relative cytoprotective activity in assay [1] is recorded as 0.7359. For the same compound, the “Relative activation of NAMPT activity” value in assay [3] is on record as 0.5464.

Regarding `CC(C)(C)c1ccc(C(N)=O)cc1OCC(=O)Nc1ccc(O)cc1` [Compound 63], in assay [1], the Relative cytoprotective activity is 1.065. For the same compound, in assay [3], the “Relative activation of NAMPT activity” value came to 2.041.

`CC(C)(C)c1ccc(C(=O)O)cc1OCC(=O)Nc1ccc(O)cc1` [Compound 64] showed a Relative cytoprotective activity in assay [1] of 0.2131. For the same compound, in assay [3], the “Relative activation of NAMPT activity” value was −0.0799.

Turning to `COC(=O)c1cccc(C(C)(C)C)c1OCC(=O)Nc1ccc(O)cc1` [Compound 65, 3-(tert-butyl)-2-(2-((4-hydroxyphenyl)amino)-2-oxoethoxy)methyl benzoate], the Relative cytoprotective activity in assay [1] was determined as 0.1431. For the same compound, the “Relative activation of NAMPT activity” value in assay [3] worked out at 0.00292.

Take `CC(C)(C)c1cc(C#N)ccc1OCC(=O)Nc1ccc(O)cc1` [Compound 66, 2-(2-(tert-butyl)-4-cyanophenoxy)-N-(4-hydroxyphenyl)acetamide]: the Relative cytoprotective activity in assay [1] turned out to be 1.569. Further, in assay [3], the “Relative activation of NAMPT activity” value came to 1.2627.
